The series is described as follows: Percentages of plasma metabolites in human after oral administration of [14C]-Formula I (HPLC radioprofiling of pooled plasma). In kind it is in vivo. As for the experimental part: Six healthy male human subjects were administered a single 10 mg (free base) oral dose of 4-(3,4-dichloro-phenyl)-2-[2-(4-methyl-piperazin-1-yl)-benzylidene]-thiomorpholin-3-one containing 100 μCi of [^14C]-4-(3,4-dichloro-phenyl)-2-[2-(4-methyl-piperazin-1-yl)-benzylidene]-thiomorpholin-3-one (Lot# 49,800-103-1, specific activity 15.66 mCi/mmol, radiochemical purity >99%). [drawing 9]
a). Blood sufficient to provide approximately 10 mL plasma for 4-(3,4-dichloro-phenyl)-2-[2-(4-methyl-piperazin-1-yl)-benzylidene]-thiomorpholin-3-one metabolite identification was collected in heparinized tubes at the following approximate times: 2, 8, 24, 48, 96, and 192 hours after drug administration. Samples were centrifuged at approximately 4° C. and the plasma was stored in appropriately labeled, screw-capped opaque polypropylene tubes at −20° C. until analysis.
Plasma samples were pooled by human subject separately according to the method published by Raid, et al. (Raid, et al: Pharm. Res. (1991), 8(4), 541-543). Aliquots (1 mL) from each pool were extracted with 5 mL of acetonitrile. The mixtures were vortex-mixed for 3 minutes, sonicated for 30 minutes and then centrifuged for 7 minutes at 20° C. Aliquotes of the supernatant (2×500 μL) were counted to determine recovery. Approximately 95.1% of the radioactivity was recovered in the supernatants. The supernatants were combined according to subject number to two equal sets and dried in the Turbovap at room temperature. One set of the dried residue (six subjects) was reconstituted in 150 μL of 10 mM ammonium acetate (pH 4.0)/methanol/dimethyl sulfoxide (1.5:1.5:1) and aliquots of 100 μL were injected onto HPLC-Arc system for profiling. The other set of dried residues were combined and reconstituted in 300 μL of 10 mM ammonium acetate (pH 4.0)/methanol/dimethyl sulfoxide (1.5:1.5:1) and 90 μL was injected onto HPLC-MS/MS system for metabolite identification.

The structures appear in SMILES notation.

As for `CN1CCn2c(c(C3SCCN(c4ccc(Cl)c(Cl)c4)C3=O)c3ccccc32)C1` (stereo not shown) [Metabolite M10A], the “% of Total Radioactivity in Plasma, Subject#1” value (human Subject#1, single 10 mg oral dose of [14C]-parent compound) is on record as 60.6%. In addition, under “human Subject#2, single 10 mg oral dose of [14C]-parent compound”, the “% of Total Radioactivity in Plasma, Subject#2” value is reported as 57.6%. Moreover, under “human Subject#3, single 10 mg oral dose of [14C]-parent compound”, the “% of Total Radioactivity in Plasma, Subject#3” value was 62.8%. For the same molecule, the “% of Total Radioactivity in Plasma, Subject#4” value (human Subject#4, single 10 mg oral dose of [14C]-parent compound) is listed as 72.2%. Further, the “% of Total Radioactivity in Plasma, Subject#5” value (human Subject#5, single 10 mg oral dose of [14C]-parent compound) is listed as 69.6%. For the same molecule, the “% of Total Radioactivity in Plasma, Subject#6” value (human Subject#6, single 10 mg oral dose of [14C]-parent compound) is 68.3%. Also, the “% of Total Radioactivity in Plasma, Mean” value (mean of six human subjects, single 10 mg oral dose of [14C]-parent compound) is given as 65.2%.

Source of the values: patent publication US20060009448A1, “Metabolites of 4-(3,4-dichloro-phenyl)-2-[2-(4-methyl-piperazin-1-yl)-benzylidene]thiomorpholin-3-one” (Pfizer Inc., priority 2004, published 2006).
